The values below come from ChEMBL document CHEMBL4706766, “Novel Bromodomain BRD4 Inhibitors for Treating Cancer” (ACS Med Chem Lett, 2021).

Experiment [1] has as its target T1, Bromodomain-containing protein 4 (Homo sapiens, UniProt O60885). In words: Binding affinity to His-6 tagged BRD4 BD1 bromodomain (unknown origin) incubated for 10 mins by TR-FRET assay. (TR-FRET usually uses a lanthanide donor and a delayed reading to cut background.)
Experiment [2] addresses T1, Bromodomain-containing protein 4. The experiment is described as follows: Binding affinity to His-6 tagged BRD4 BD2 bromodomain (unknown origin) incubated for 10 mins by TR-FRET assay.

What is called IC50 is the concentration that gives 50% inhibition. A high value points to weaker potency. On to `COC(=O)c1cc2c(cc1CS(C)(=O)=O)-c1cn(C)c(=O)c3[nH]cc(c13)CN2c1ncc(C#CCN)cc1F`, for which the IC50 in experiment [1] is 3.3 nM; in experiment [2], 3.7 nM.
